One experiment deals with T1, GHS1A-receptor (Homo sapiens, UniProt Q92847).
T1 construct: expressed in transfected cells; host or cells: HEK293
Briefly: Ghrelin-agonism in HEK293 cells (intracellular calcium, FLIPR). In kind it is cell-based. The conditions noted are these: calcium fluorescence (fluo-4 or Kit-3), EC50 in M. The procedure: One day before the experiment, HEK293 cells, permanently transfected with the gene sequence for expression of the GHS1A-receptor, were seeded in poly-D-Lysine coated 96-well plates with clear bottom, and allowed to grow to […] of confluence on the next day.
Then, cells were incubated with the calcium-sensitive intracellular fluorescent probe fluo-4 or Kit-3 for 1 h at 37° C. Fluorescence representing free intracellular calcium in the cells was measured in a FLIPR-system (excitation at 488 nm, emission>520 nm). Test compounds were added to each well at the desired concentration and the fluorescence signal was simultaneously recorded in all wells. Release of intracellular calcium triggered by activation of the receptors upon addition of the test compound was measured as the fluorescence emitted from the complex of calcium and the fluorescent probe. The drug effect on fluorescence intensity was expressed relative to the maximal fluorescence intensity measured in cells exposed to the calcium-ionophore ionomycin.
On the technique in general: Calcium assays in cells follow changes in intracellular calcium, usually with a dye or a luminescent sensor.

The test system of a further experiment is NMRI-mice. Briefly: Acceleration of gastric emptying and small intestinal propulsion in NMRI-mice. In kind it is in vivo. The note with it: Mus musculus, sc. The protocol: Male NMRI-mice weighing around 25 gram were fasted for 20 h and had free access to drinking water. Test compounds were administered to the animals by subcutaneous route 30 min before they were given a test meal by oral gavage. The test meal consisted of 0.3 ml of a chocolate nutridrink solution (1.0 kcal/ml) containing phenol red marker (5 mg/ml). Fifteen min after administration of the meal, the mice were sacrificed by CO2 gas inhalation. The phenol red content remaining in the stomach (extracted from the stomach with NaOH) was determined at 557 nm in a spectrophotometer and expressed as extinction units. Small intestinal propulsion was determined as the distance traveled by the phenol red marker through the intestine and expressed as a percentage of total small intestinal length (from the pylorus to the ileo-cecal junction).
The lowest dose that was active for each parameter was noted as the lowest active dose (LAD). Table 12 discloses LAD values.

[1] abbreviates: HEK293 cells permanently transfected with GHS1A-receptor, read-out: pEC50 (converted).
The mark [2] stands for this setting: lowest active dose, subcutaneous, 30 min before phenol red test meal, active when >60% of animals had phenol red front beyond 85% of small intestinal length, read-out: LAD (mg/kg) Small intestinal propulsion.
The mark [3] stands for this setting: lowest active dose, subcutaneous, 30 min before phenol red test meal, stomach content 15 min after meal, active when >60% of animals below 0.9 extinction units, read-out: LAD (mg/kg) Gastric emptying.

We go through 37 compounds from US9040725B2, “Benzocycloheptane and benzoxepine derivatives” (Janssen Pharmaceutica NV, priority 2008, dated 2015).

Structures can show the parent of a compound that is named as a salt. Where two headings read alike, the source gives them in different places.

T1 sequence (Q92847 whole entry): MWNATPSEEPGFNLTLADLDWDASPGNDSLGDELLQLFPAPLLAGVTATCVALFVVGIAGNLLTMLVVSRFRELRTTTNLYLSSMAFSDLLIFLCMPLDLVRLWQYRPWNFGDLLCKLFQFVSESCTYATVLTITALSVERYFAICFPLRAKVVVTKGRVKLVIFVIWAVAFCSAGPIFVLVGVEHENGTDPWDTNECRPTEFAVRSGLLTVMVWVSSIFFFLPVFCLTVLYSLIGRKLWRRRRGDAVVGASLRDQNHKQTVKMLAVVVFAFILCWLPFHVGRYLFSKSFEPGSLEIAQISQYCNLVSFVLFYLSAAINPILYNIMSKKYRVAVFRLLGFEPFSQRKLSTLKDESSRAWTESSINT

On to `OC1(CCCN2CCCC2)c2ccccc2CCCC1c1ccccc1` (racemic) [Compound 21], for which the EC50 at GHS1A-receptor (setting [1]) was 0.0794 µM. For the same compound, the minimal effective dose with NMRI-mice (setting [2]) and in the experiment on NMRI-mice (setting [3]) was more than 10 mg/kg in each case.
`COc1ccc(C2CCCc3ccccc3C2(O)CCCN(C)C)cc1` (racemic) [Compound 66]: the EC50 at GHS1A-receptor (setting [1]) is 0.251 µM. For the same compound, the results for the minimal effective dose with NMRI-mice (setting [2]) and in the experiment with NMRI-mice (setting [3]) were 10 mg/kg and more than 10 mg/kg, respectively.
In the same order, the values of `Cc1ccc(C2CCOc3ccccc3C2(O)CCCN(C)C)cc1` (racemic) [Compound 92] are 0.0631 µM, more than 10 mg/kg and more than 10 mg/kg.
Regarding `CCN(CC)CCCC1(O)c2ccccc2CCCC1c1ccc(Cl)c(OC)c1` (racemic) [Compound 74], the EC50 at GHS1A-receptor (setting [1]) was 0.00501 µM. The minimal effective dose in the experiment with NMRI-mice (setting [2]) and in the experiment on NMRI-mice (setting [3]) was more than 40 mg/kg in each case.
Take `CN(C)CCCC1(O)c2ccccc2CCCC1c1ccc(F)cc1F` (racemic) [Compound 56]: the EC50 at GHS1A-receptor (setting [1]) was 0.0251 µM. The results for the minimal effective dose in the experiment on NMRI-mice (setting [2]) and in the experiment on NMRI-mice (setting [3]) were more than 10 mg/kg and 10 mg/kg, respectively.
In the same order, the values of `Cc1ccc([C@H]2CCCc3ccccc3[C@]2(O)CCCN(C)C)cn1` [Compound 12] are 0.251 µM, more than 10 mg/kg and more than 10 mg/kg.
In the same order, the values of `CN(C)CCCC1(O)c2ccccc2CCCC1c1ccc(Br)cc1` (racemic) [Compound 38] are 0.0251 µM, more than 10 mg/kg and more than 10 mg/kg.
In the same order, the values of `CNCCCC1(O)c2ccccc2CCCC1c1ccc(Cl)cc1` (racemic) [Compound 43] are 0.126 µM, more than 10 mg/kg and more than 10 mg/kg.
On to `COCCN(C)CCCC1(O)c2ccccc2CCCC1c1ccc(F)cc1` (racemic) [Compound 54], for which the EC50 on GHS1A-receptor (setting [1]) is 0.0631 µM. For the same compound, the minimal effective dose in the experiment with NMRI-mice (setting [2]) and in the experiment with NMRI-mice (setting [3]) was more than 40 mg/kg in each case.
Turning to `CNCCCC1(O)c2ccccc2CCCC1c1ccccc1` (racemic) [Compound 19], the EC50 at GHS1A-receptor (setting [1]) is 0.2 µM. In addition, the minimal effective dose with NMRI-mice (setting [2]) and in the experiment with NMRI-mice (setting [3]) was more than 10 mg/kg each time.
Take `CCN(CC)CCCC1(O)c2ccccc2OCCC1c1ccc(C)cc1` (racemic) [Compound 93]: the EC50 on GHS1A-receptor (setting [1]) was 0.0631 µM. Besides, the values for the minimal effective dose with NMRI-mice (setting [2]) and with NMRI-mice (setting [3]) were 10 mg/kg and more than 10 mg/kg, respectively.
In the same order, the values of `CCN(CC)CCCC1(O)c2ccccc2CCCC1c1ccc(OC)cc1` (racemic) [Compound 67] are 0.158 µM, more than 10 mg/kg and more than 10 mg/kg.
In the same order, the values of `CN(C)CCCC1(O)c2ccccc2CCCC1c1ccccc1` (single isomer, unassigned) [Compound 105] are 0.0158 µM, more than 10 mg/kg and 10 mg/kg.
In the same order, the values of `COc1ccc(C2CCOc3ccccc3C2(O)CCCN(C)C)cn1` (racemic) [Compound 102] are 7.94 µM, more than 10 mg/kg and more than 10 mg/kg.
On to `Cc1ccc(C2CCCc3ccccc3C2(O)CCCN(C)C)cc1` (racemic) [Compound 29], for which the EC50 on GHS1A-receptor (setting [1]) is 0.0158 µM. Further, the minimal effective dose with NMRI-mice (setting [2]) and with NMRI-mice (setting [3]) was 10 mg/kg in each case.
As for `COCCN(C)CCCC1(O)c2ccccc2CCCC1c1ccc(C)cc1` (racemic) [Compound 30], at GHS1A-receptor (setting [1]), the EC50 was 0.0794 µM. The figures for the minimal effective dose in the experiment with NMRI-mice (setting [2]) and with NMRI-mice (setting [3]) were more than 10 mg/kg and 10 mg/kg, respectively.
Consider `CN(C)CCCC1(O)c2ccccc2CCCC1c1cncc(Cl)c1` (racemic) [Compound 81], for which, on GHS1A-receptor (setting [1]), the EC50 was 0.0501 µM. The minimal effective dose in the experiment with NMRI-mice (setting [2]) and with NMRI-mice (setting [3]) was more than 10 mg/kg in each case.
For the compound `CN(C)CCCC1(O)c2ccccc2CCCC1c1ccc(O)cc1` (racemic) [Compound 35], the EC50 at GHS1A-receptor (setting [1]) is 2 µM. Further, the minimal effective dose with NMRI-mice (setting [2]) and with NMRI-mice (setting [3]) was more than 10 mg/kg in each case.
With `CNCCCC1(O)c2ccccc2CCCC1c1cccc(Cl)c1` (racemic) [Compound 39], the EC50 at GHS1A-receptor (setting [1]) was 0.0501 µM. Besides, the minimal effective dose with NMRI-mice (setting [2]) and in the experiment on NMRI-mice (setting [3]) was more than 10 mg/kg each time.
Regarding `COc1cccc([C@H]2CCCc3ccccc3[C@]2(O)CCCN(C)C)c1` (racemic) [Compound 14, (±)cis-5-(3-Dimethylamino-propyl)-6-(3-methoxy-phenyl)-6,7,8,9-tetrahydro-5H-benzocyclohepten-5-ol oxalate], the EC50 on GHS1A-receptor (pEC50, HEK293 cells permanently transfected with GHS1A-receptor) was 0.0126 µM. In addition, the minimal effective dose is 10 mg/kg in the experiment with NMRI-mice (read-out: LAD (mg/kg) Gastric emptying) and more than 10 mg/kg in the experiment on NMRI-mice (read-out: LAD (mg/kg) Small intestinal propulsion).
As to `CCN(CC)CCCC1(O)c2ccccc2CCCC1c1ccc2c(c1)OCO2` (racemic) [Compound 89], the EC50 at GHS1A-receptor (setting [1]) was 0.0398 µM. Further, the minimal effective dose in the experiment with NMRI-mice (setting [2]) and with NMRI-mice (setting [3]) was more than 10 mg/kg in each case.
With `COc1cc(C2CCCc3ccccc3C2(O)CCCN(C)C)ccc1Cl` (racemic) [Compound 72], on GHS1A-receptor (setting [1]), the EC50 was 0.01 µM. Further, the minimal effective dose in the experiment with NMRI-mice (setting [2]) and in the experiment on NMRI-mice (setting [3]) was more than 10 mg/kg each time.
Consider `COCCN(C)CCCC1(O)c2ccccc2CCCC1c1cccc(Cl)c1` (racemic) [Compound 42], for which the EC50 on GHS1A-receptor (setting [1]) is 0.0501 µM. The minimal effective dose in the experiment on NMRI-mice (setting [2]) and with NMRI-mice (setting [3]) was more than 10 mg/kg in each case.
Turning to `Cc1ccc(C2CCOc3ccccc3C2(O)CCCN(C)C)cn1` (racemic) [Compound 99], the EC50 on GHS1A-receptor (setting [1]) was 0.794 µM. Moreover, the minimal effective dose in the experiment on NMRI-mice (setting [2]) was more than 10 mg/kg; in the experiment on NMRI-mice (setting [3]), 10 mg/kg.
With `COCCN(C)CCCC1(O)c2ccccc2CCCC1c1cccc(C)c1` (racemic) [Compound 23], the EC50 on GHS1A-receptor (setting [1]) is 0.0316 µM.
Same read-out and setting: as for `Cc1cccc(C2CCCc3ccccc3C2(O)CCCN(C)Cc2ccccc2)c1` (racemic) [Compound 24], the figure is 3.98 µM; as for `OC1CCN(CCCC2(O)c3ccccc3CCCC2c2ccc3c(c2)OCO3)C1` (racemic) [Compound 91], 1 µM; as for `Cc1cccc(C2CCCc3ccccc3C2(O)CCCN2CCOCC2)c1` (racemic) [Compound 25], 1.58 µM.
As for `Cc1ccc([C@H]2CCOc3ccccc3[C@]2(O)CCCN(C)Cc2ccccc2)cc1` (racemic) [Compound 10], on GHS1A-receptor (setting [1]), the EC50 was 0.251 µM.
Still for that read-out and setting: the result for `OC1(CCCN2CCCCC2)c2ccccc2CCCC1c1ccc(F)cc1F` (racemic) [Compound 59] reads more than 10 µM.
Still for that read-out and setting: as for `COCCN(C)CCCC1(O)c2ccccc2CCCC1c1ccc(OC)c(OC)c1` (racemic) [Compound 79], the figure is 2 µM; as for `CN(C)CCCC1(O)c2ccccc2CCCC1c1ccc(Cl)cc1` (single isomer, unassigned) [Compound 6], 0.01 µM; as for `CCNCCCC1(O)c2ccccc2CCCC1c1ccc(Cl)cc1` (racemic) [Compound 44], 0.501 µM.
On the same count and under the same terms, the result for `COc1cccc(C2CCCc3ccccc3C2(O)CCCN(C)Cc2ccccc2)c1` (racemic) [Compound 62] reads 2.51 µM; that for `COc1ccc(C2CCCc3ccccc3C2(O)CCCN(C)C)cc1OC` (racemic) [Compound 77], 0.794 µM; that for `OC1(CCCN2CCNCC2)c2ccccc2CCCC1c1ccc(Cl)cc1` (racemic) [Compound 51], 1.58 µM.
Take `COc1ccc(C2CCCc3ccccc3C2(O)CCCN)cc1` (racemic) [Compound 64]: the EC50 at GHS1A-receptor (setting [1]) is 25.1 µM.
